Molecules are shown by their SMILES.

Holding throughout (assay): Combined in vitro use, checkerboard dilution method
Holding throughout (assay type): cell-based

The subject of one experiment is Enterobacter cloacae. The note with it: compound of formula (I-1) combined with avibactam; Enterobacter cloacae ATCC 2468. The method, boiled down: (§1)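 Checkerboard two-fold dilutions of drug (2,048 μg/mL stock) plus lactamase or efflux pump inhibitor in MH broth, inoculated with bacteria at 6×10^5 CFU/mL (suspension concentration), 37° C for 18 hours. Growth scored visually. FICI computed from MICs in combination versus alone; triplicates, three separate days, averaged.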

The next experiment deals with Klebsiella pneumoniae. The method, boiled down:
as §1

Another experiment concerns Escherichia coli. The method, boiled down: as §1

In the case of `CC1(C)[C@H](NC(=O)/C(=N\OC2(C(=O)O)CC2)c2csc(N)n2)C(=O)N1OS(=O)(=O)O` [Compound of formula (I-1)], the MIC in combination with Enterobacter cloacae came out at 1 µg/mL; with Klebsiella pneumoniae (compound of formula (I-1) combined with avibactam, Klebsiella pneumoniae ATCC 2146) it was 0.5 µg/mL; in the experiment on Klebsiella pneumoniae (compound of formula (I-1) combined with avibactam, Klebsiella pneumoniae ATCC 700603), 0.5 µg/mL; in the experiment on Klebsiella pneumoniae (compound of formula (I-1) combined with avibactam, Klebsiella pneumoniae CCPM(A)-0814R18), 0.25 µg/mL; with Klebsiella pneumoniae (compound of formula (I-1) combined with avibactam, Klebsiella pneumoniae CCPM(A)-0814R33), 0.25 µg/mL; in the experiment with Klebsiella pneumoniae (compound of formula (I-1) combined with avibactam, Klebsiella pneumoniae CCPM(A)-0817R61) it was 1 µg/mL. The MIC in combination in the experiment on Klebsiella pneumoniae (compound of formula (I-1) combined with avibactam, Klebsiella pneumoniae CCPM(A)-081705) was 0.5 µg/mL; in the experiment with Klebsiella pneumoniae (compound of formula (I-1) combined with avibactam, Klebsiella pneumoniae CCPM(A)-081715), 0.5 µg/mL; in the experiment on Klebsiella pneumoniae (compound of formula (I-1) combined with avibactam, Klebsiella pneumoniae CCPM(A)-081716) it was 0.25 µg/mL; in the experiment on Klebsiella pneumoniae (compound of formula (I-1) combined with avibactam, Klebsiella pneumoniae CCPM(A)-081729), 0.5 µg/mL; in the experiment with Klebsiella pneumoniae (compound of formula (I-1) combined with relebactam, Klebsiella pneumoniae ATCC 2146), 0.5 µg/mL; with Klebsiella pneumoniae (compound of formula (I-1) combined with relebactam, Klebsiella pneumoniae ATCC 700603) it was 0.125 µg/mL. The MIC in combination was determined as 0.5 µg/mL in the experiment with Klebsiella pneumoniae (compound of formula (I-1) combined with vaborbactam, Klebsiella pneumoniae ATCC 700603); 0.5 µg/mL in the experiment with Klebsiella pneumoniae (compound of formula (I-1) combined with vaborbactam, Klebsiella pneumoniae CCPM(A)-0814R33); 0.125 µg/mL in the experiment with Escherichia coli (compound of formula (I-1) combined with avibactam, Escherichia coli ATCC 2469); 0.25 µg/mL in the experiment on Escherichia coli (compound of formula (I-1) combined with avibactam, Escherichia coli CCPM(A)-P-071301); 0.5 µg/mL in the experiment on Escherichia coli (compound of formula (I-1) combined with vaborbactam, Escherichia coli CCPM(A)-P-071301).

The values are drawn from US20240390335A1, “PHARMACEUTICAL COMPOSITION CONTAINING BETA-LACTAM COMPOUND AND USE THEREOF” (priority 2021, published 2024).
